The source of these data is ChEMBL document CHEMBL4837241, “Identification of Betulinic Acid Derivatives as Potent TGR5 Agonists with Antidiabetic Effects via Humanized TGR5H88Y Mutant Mice” (J Med Chem, 2021).

Molecules are shown by their SMILES. ≈ marks a conversion by molar mass, not a printed value. Calls of active or inactive are those of the source. The calls are words filed in the database; no cut-off is given here.

For data set [1], the target named is T1, G-protein coupled bile acid receptor 1 (Mus musculus) (UniProt Q80SS6).
T1 sequence (whole entry): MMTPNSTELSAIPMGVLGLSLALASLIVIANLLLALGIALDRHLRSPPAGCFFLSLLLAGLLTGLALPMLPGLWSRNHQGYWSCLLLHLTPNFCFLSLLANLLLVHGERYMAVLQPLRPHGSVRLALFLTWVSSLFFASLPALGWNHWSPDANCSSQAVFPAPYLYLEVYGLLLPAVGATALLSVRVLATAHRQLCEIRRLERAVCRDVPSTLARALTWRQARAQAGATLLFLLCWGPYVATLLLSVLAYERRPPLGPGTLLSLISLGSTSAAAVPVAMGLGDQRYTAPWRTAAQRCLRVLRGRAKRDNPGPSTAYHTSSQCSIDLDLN
Kind of data set: Agonist activity at N-terminal HA-tagged mouse TGR5 expressed in HEK293 cells assessed as […] in intracellular cAMP levels incubated for 30 mins by Lance Ultra cAMP assay relative to control. Type of data set: functional, cell-based. To be noted: for Activity: filed as agonist. Background: Cyclic AMP is a second messenger, typically raised through Gs and lowered through Gi signalling.

Data set [2] concerns the target T2, G-protein coupled bile acid receptor 1 (Homo sapiens) (UniProt Q8TDU6).
T2 sequence (whole entry): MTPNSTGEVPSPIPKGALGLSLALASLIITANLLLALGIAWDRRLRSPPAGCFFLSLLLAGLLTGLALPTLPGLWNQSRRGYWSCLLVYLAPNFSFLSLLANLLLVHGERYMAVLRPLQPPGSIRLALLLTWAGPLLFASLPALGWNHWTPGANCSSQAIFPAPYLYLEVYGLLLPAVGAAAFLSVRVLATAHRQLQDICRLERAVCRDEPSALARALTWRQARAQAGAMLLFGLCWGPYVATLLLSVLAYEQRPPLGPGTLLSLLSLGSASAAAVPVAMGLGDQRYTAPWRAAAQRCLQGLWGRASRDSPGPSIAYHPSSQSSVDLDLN
Kind of data set: Agonist activity at N-terminal HA-tagged human TGR5 expressed in HEK293 cells assessed as […] in intracellular cAMP levels incubated for 30 mins by Lance Ultra cAMP assay relative to control. Type of data set: functional, cell-based. Conditions: filed as agonist.

A short description of data set [3]: Aqueous solubility of compound. The class given is physicochemical. To be noted: buffer.
In data set [4] the target is T3, Bile acid receptor (Homo sapiens) (UniProt Q96RI1).
T3 sequence (whole entry): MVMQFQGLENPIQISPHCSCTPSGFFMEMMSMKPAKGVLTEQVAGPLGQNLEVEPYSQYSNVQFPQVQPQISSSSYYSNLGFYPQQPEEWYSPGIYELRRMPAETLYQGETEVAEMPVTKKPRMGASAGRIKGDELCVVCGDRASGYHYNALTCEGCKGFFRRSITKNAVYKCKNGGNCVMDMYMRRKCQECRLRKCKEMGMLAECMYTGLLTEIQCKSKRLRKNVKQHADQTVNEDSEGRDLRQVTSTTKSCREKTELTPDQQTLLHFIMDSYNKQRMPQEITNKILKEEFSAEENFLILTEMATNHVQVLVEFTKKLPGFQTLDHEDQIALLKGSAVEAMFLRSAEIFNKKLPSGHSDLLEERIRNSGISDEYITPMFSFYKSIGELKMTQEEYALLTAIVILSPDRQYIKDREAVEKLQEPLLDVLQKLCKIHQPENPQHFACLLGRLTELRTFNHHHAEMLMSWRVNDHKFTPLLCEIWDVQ
Briefly: Agonist activity at human FXR (247 to 467 residues) expressed in HEK293 cells at 100 uM incubated for 8 hrs by luciferase assay. Type of data set: cell-based.

For data set [5], the target named is T4, G-protein coupled bile acid receptor 1 (Homo sapiens, UniProt Q8TDU6).
T4 sequence (Q8TDU6 whole entry): T2 sequence (whole entry)
Kind of data set: Agonist activity at N-terminal HA-tagged human TGR5 expressed in HEK293 cells assessed as […] in intracellular cAMP levels incubated for 30 mins by Lance Ultra cAMP assay. The class given is functional, cell-based.

The nature of data set [6]: Apparent permeability in human Caco2 cells across basolateral side to apical side assessed as drug recovery at 10 uM incubated for 95 mins by liquid chromatography-tandem mass spectrometry. Type of data set: ADME, cell-based. To be noted: Caco-2, read-out: Drug recovery. A general note: Caco-2 cells form a polarised layer with tight junctions and transporters.
The target in data set [7] is T5, G-protein coupled bile acid receptor 1 (Mus musculus, UniProt Q80SS6).
T5 sequence (Q80SS6 whole entry): T1 sequence (whole entry)
Briefly: Agonist activity at N-terminal HA-tagged mouse TGR5 expressed in HEK293 cells assessed as […] in intracellular cAMP levels incubated for 30 mins by Lance Ultra cAMP assay. Type of data set: functional, cell-based.

In data set [8] the test system is Mus musculus. Briefly: Anti-glycemic activity in fasted C57/BL6 mouse harboring TGR5 H88Y mutant assessed as reduction in plasma glucose at 100 mg/kg administered 30 mins prior to glucose challenge by OGTT. The class given is functional, organism-based.
Data set [9] is described as follows: Apparent permeability in human Caco2 cells across apical side to basolateral side assessed as drug recovery at 10 uM incubated for 95 mins by liquid chromatography-tandem mass spectrometry. The class given is ADME, cell-based. Conditions: Caco-2, read-out: Drug recovery.
Data set [10] deals with Mus musculus. Kind of data set: Anti-glycemic activity in fasted C57BL/6n mouse assessed as increase in serum GLP1 at 100 mg/kg administered 30 mins prior to glucose challenge and measured after 15 mins by ELISA method. The class given is functional, organism-based. A general note: In an ELISA, binding on a coated surface is turned into a signal by an enzyme label.
For data set [11], the system named is Pancreatic islet. Briefly: Stimulation of glucose-induced insulin secretion in pancreatic islets of C57BL/6n mouse harboring wild type TGR5 at 1 uM incubated for 2 hrs by HTRF method. The class given is functional, tissue-based.
The test system of data set [12] is Mus musculus. Briefly: Anti-glycemic activity in fasted C57BL/6n mouse harboring TGR5 H88Y mutant assessed as increase in serum GLP1 at 100 mg/kg administered 30 mins prior to glucose challenge and measured after 15 mins by ELISA method. The class given is functional, organism-based.
In data set [13] the test system is Mus musculus. Briefly: Anti-glycemic activity in fasted C57BL/6n mouse harboring TGR5 H88Y mutant assessed as increase in serum insulin at 100 mg/kg administered 30 mins prior to glucose challenge and measured after 15 mins by ELISA method. Type of data set: functional, organism-based.
In data set [14] the test system is Pancreatic islet. Briefly: Stimulation of glucose-induced insulin secretion in pancreatic islets of C57BL/6n mouse harboring TGR5 H88Y mutant at 1 uM incubated for 2 hrs by HTRF method. Type of data set: functional, tissue-based.
Data set [15] concerns Mus musculus. Briefly: Anti-glycemic activity in fasted C57BL/6n mouse assessed as increase in serum insulin at 100 mg/kg administered 30 mins prior to glucose challenge and measured after 15 mins by ELISA method. The class given is functional, organism-based.
Data set [16] concerns Mus musculus. Briefly: Anti-glycemic activity in fasted C57BL/6n mouse harboring wild type TGR5 assessed as reduction in plasma glucose at 100 mg/kg administered 30 mins prior to glucose challenge by OGTT. Type of data set: functional, organism-based.
Data set [17] concerns HEK293. Briefly: Agonist activity at N-terminal HA-tagged dog TGR5 expressed in HEK293 cells assessed as […] in intracellular cAMP levels incubated for 30 mins by Lance Ultra cAMP assay relative to control. Type of data set: cell-based. To be noted: Canis lupus familiaris, filed as agonist.
Data set [18] relates to HEK293. Briefly: Ratio of agonist activity at N-terminal HA-tagged mouse TGR5 expressed in HEK293 cells to agonist activity at N-terminal HA-tagged mouse TGR5 H88Y mutant expressed in HEK293 cells. Type of data set: cell-based.
The nature of data set [19]: Apparent permeability in human Caco-2 cells across apical side to basolateral side at 10 uM incubated for 95 mins by liquid chromatography-tandem mass spectrometry. The class given is ADME, cell-based.
Data set [20] can be described thus: Efflux ratio in human Caco-2 cells at 10 uM by LC/MS/MS analysis. The class given is ADME, cell-based.
Data set [21] is described as follows: Apparent permeability in human Caco-2 cells across basolateral side to apical side at 10 uM incubated for 95 mins by liquid chromatography-tandem mass spectrometry. The class given is ADME, cell-based.

In general, Emax refers to the greatest response seen or fitted, relative to the assay's reference. In general, solubility refers to how much of the substance goes into solution per volume. A low value points to little dissolved substance. What is called EC50 is the concentration needed to bring the measured effect to its halfway point. Turning to `CCCC(=O)O[C@@H]1CC[C@]2(C)[C@H]3CC[C@@H]4[C@H]5[C@H](C(C)C)CC[C@]5(C(=O)O)CC[C@@]4(C)[C@]3(C)CC[C@H]2C1(C)C`, the Emax is 22% in [1] and 94% in [2]. Further, in data set [3], the solubility was determined as 0.13 µM (≈ 0.0687 µg/mL). The result (in data set [4]; with Mus musculus [8]) was inactive. The EC50 in [5] was found to be 0.0831 µM; in data set [7], 2.61 µM. Also, the recovery at 1.583 h, 10 µM in data set [6] and in [9] was 0% each time.

Take `C[C@H](O)[C@@H]1CC[C@]2(C(=O)O)CC[C@]3(C)[C@H](CC[C@@H]4[C@@]5(C)CC[C@@H](OC(=O)NC6CC6)C(C)(C)[C@@H]5CC[C@]43C)[C@@H]12` [listing 1 of 2 here]: the Emax in data set [2] came to 99%. Besides, the result (in data set [4]; in the data set on Mus musculus [10]; in the data set on Mus musculus [15]; in the data set with Mus musculus [16]) was inactive. The outcome in the data set with Pancreatic islet [11], in the data set on Mus musculus [12], in the data set on Mus musculus [8], in the data set with Mus musculus [13] and with Pancreatic islet [14] was Active.

Regarding `C[C@H](CCC(=O)O)[C@H]1CC[C@H]2[C@@H]3CC[C@@H]4C[C@H](O)CC[C@]4(C)[C@H]3CC[C@]12C`, the result (in [1]; in the data set with HEK293 [17]) was Active.

Turning to `O=C(c1cccnc1Oc1cc(Cl)ccc1Cl)N1CCCc2ccccc21`, the Ratio with HEK293 [18] is 4.9. For the same compound, in the data set with HEK293 [17], the result was Active.

`C[C@H](O)[C@@H]1CC[C@]2(C(=O)O)CC[C@]3(C)[C@H](CC[C@@H]4[C@@]5(C)CC[C@@H](OC(=O)NC6CC6)C(C)(C)[C@@H]5CC[C@]43C)[C@@H]12` [listing 2 of 2 here] registered a solubility in [3] of 12.2 µM (≈ 6.63 µg/mL). Besides, the half-maximal effective concentration (EC50) in data set [5] stood at 0.00507 µM.

As for `C[C@H](CCC(=O)O)[C@H]1CC[C@H]2[C@@H]3[C@H](O)C[C@@H]4C[C@H](O)CC[C@]4(C)[C@H]3C[C@H](O)[C@]12C`, the outcome (in [1]; in the data set with HEK293 [17]) was Active.

The Papp A→B is the apparent permeability from the apical to the basolateral side of a cell layer. In general, efflux ratio refers to a quotient of directional permeabilities that is used to spot active efflux. The Papp B→A is how fast a substance crosses the layer from the basolateral side. `C[C@H](O)[C@@H]1CC[C@]2(C(=O)[O-])CC[C@]3(C)[C@H](CC[C@@H]4[C@@]5(C)CC[C@@H](OC(=O)NC6CC6)C(C)(C)[C@@H]5CC[C@]43C)[C@@H]12.[Na+]`: the Papp A→B at 1.583 h, 10 µM in data set [19] came out at 75.6 nm/s. For the same compound, the efflux ratio at 10 µM in data set [20] stood at 0.329. Moreover, the solubility in data set [3] was 76300 µM. Besides, the basolateral-to-apical permeability (Papp B→A) at 1.583 h, 10 µM in data set [21] is 24.9 nm/s. Moreover, the recovery at 1.583 h, 10 µM in data set [6] was 85.1%; in data set [9], 84.6%.

Turning to `COc1ccc2cc(CNCCc3ccc(Br)cc3)c(-c3ccsc3)nc2c1`, the Ratio with HEK293 [18] was found to be 5.6. In the data set with HEK293 [17], the result was Active.
